From ChEMBL document CHEMBL1255512, “Pyrazolo[1,5-a]pyrimidine acetamides: 4-Phenyl alkyl ether derivatives as potent ligands for the 18 kDa translocator protein (TSPO)” (Bioorg Med Chem Lett, 2010)

What was measured:
[1] = molecular target: Alpha-2A adrenergic receptor (Homo sapiens) (UniProt P08913); experiment: Inhibition of alpha2A adrenergic receptor at 10 uM
[2] = molecular target: 5-hydroxytryptamine receptor 3A (Homo sapiens) (UniProt P46098); experiment: Inhibition of 5-HT3 receptor at 10 uM
Chain of 5-hydroxytryptamine receptor 3A (Homo sapiens) (P46098 whole entry): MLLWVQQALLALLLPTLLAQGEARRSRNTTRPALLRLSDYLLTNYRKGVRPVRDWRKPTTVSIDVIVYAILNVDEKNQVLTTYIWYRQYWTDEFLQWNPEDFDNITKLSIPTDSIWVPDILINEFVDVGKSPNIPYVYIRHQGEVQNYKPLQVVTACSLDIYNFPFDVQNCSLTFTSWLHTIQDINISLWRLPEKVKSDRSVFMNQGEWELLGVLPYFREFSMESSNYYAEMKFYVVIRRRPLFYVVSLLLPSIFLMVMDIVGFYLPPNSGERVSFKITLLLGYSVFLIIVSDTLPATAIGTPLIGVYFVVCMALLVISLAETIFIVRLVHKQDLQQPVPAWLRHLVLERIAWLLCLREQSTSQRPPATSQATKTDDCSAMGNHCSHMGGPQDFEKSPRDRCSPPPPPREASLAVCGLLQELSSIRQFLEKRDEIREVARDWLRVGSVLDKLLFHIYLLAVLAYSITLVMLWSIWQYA

[3] = molecular target: T1, Kappa-type opioid receptor (Homo sapiens, UniProt P41145); experiment: Inhibition of kappa opioid receptor at 10 uM
T1 sequence (P41145 whole entry): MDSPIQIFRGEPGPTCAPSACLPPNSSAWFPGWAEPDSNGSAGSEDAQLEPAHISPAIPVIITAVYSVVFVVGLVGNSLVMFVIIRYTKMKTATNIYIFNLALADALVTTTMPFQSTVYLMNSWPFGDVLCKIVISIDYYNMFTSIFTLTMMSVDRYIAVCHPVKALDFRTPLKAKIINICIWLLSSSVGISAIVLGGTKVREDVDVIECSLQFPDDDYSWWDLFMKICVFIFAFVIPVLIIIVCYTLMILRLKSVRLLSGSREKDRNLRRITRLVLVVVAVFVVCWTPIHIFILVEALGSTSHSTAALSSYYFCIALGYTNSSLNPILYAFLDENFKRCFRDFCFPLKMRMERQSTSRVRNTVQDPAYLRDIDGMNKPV

[4] = molecular target: T2, Delta-type opioid receptor (Homo sapiens, UniProt P41143); experiment: Inhibition of delta opioid receptor at 10 uM
T2 sequence (P41143 whole entry): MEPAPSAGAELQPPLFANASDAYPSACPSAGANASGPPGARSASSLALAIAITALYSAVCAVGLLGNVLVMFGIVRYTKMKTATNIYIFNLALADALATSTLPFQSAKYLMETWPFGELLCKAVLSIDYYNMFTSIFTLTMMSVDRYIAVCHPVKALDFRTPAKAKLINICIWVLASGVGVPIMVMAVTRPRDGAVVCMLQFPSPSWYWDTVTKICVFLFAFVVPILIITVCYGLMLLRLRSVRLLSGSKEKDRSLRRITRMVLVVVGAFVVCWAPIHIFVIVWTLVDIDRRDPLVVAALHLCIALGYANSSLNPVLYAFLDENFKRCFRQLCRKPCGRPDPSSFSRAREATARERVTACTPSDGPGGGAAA

[5] = molecular target: T2, Delta-type opioid receptor; experiment: Inhibition of delta opioid receptor
[6] = molecular target: 5-hydroxytryptamine receptor 2B (Homo sapiens, UniProt P41595); experiment: Inhibition of 5-HT2B receptor
Chain of 5-hydroxytryptamine receptor 2B (P41595 whole entry): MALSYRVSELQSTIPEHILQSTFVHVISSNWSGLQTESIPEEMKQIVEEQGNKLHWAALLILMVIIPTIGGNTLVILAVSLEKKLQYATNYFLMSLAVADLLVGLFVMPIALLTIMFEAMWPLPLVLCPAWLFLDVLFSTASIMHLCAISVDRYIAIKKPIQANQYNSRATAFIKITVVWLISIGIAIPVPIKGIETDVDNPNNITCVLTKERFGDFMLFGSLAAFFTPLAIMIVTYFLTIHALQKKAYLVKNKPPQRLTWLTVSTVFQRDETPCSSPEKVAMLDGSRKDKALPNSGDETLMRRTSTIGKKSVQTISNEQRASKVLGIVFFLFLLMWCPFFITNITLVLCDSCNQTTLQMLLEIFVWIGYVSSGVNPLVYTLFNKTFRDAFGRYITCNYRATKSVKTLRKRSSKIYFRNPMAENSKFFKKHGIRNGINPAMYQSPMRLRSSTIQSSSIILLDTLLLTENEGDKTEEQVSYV

[7] = molecular target: T1, Kappa-type opioid receptor; experiment: Inhibition of kappa opioid receptor
[8] = molecular target: Alpha-1B adrenergic receptor (Homo sapiens, UniProt P35368); experiment: Inhibition of Alpha-1B adrenergic receptor
Chain of Alpha-1B adrenergic receptor (P35368 whole entry): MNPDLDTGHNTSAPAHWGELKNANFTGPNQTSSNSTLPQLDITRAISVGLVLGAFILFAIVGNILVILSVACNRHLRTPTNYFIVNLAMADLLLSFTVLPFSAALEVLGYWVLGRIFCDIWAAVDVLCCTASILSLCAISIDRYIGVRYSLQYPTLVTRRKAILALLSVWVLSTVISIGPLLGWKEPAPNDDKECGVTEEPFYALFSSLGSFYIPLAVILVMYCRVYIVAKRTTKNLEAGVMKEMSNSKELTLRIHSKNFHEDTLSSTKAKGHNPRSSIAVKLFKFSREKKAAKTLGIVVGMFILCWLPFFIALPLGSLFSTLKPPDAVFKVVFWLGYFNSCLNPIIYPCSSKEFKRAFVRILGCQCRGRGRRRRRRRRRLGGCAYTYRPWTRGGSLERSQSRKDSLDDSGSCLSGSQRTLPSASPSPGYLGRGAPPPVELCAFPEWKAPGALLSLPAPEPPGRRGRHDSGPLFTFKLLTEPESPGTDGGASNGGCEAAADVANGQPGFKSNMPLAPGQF

Chain of Alpha-2A adrenergic receptor (Homo sapiens) (P08913 whole entry): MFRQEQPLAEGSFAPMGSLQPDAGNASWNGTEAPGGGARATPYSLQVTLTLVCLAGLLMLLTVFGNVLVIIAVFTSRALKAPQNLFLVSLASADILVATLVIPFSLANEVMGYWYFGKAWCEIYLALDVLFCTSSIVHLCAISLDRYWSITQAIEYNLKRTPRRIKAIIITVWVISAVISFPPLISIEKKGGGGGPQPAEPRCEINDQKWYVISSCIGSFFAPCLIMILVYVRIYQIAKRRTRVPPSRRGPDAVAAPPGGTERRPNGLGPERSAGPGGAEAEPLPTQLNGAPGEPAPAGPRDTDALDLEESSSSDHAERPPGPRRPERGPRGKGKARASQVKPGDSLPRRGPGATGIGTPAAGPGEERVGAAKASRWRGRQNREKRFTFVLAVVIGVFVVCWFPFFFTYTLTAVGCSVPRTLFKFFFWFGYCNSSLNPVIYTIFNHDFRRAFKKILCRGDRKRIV

inhibition [1] [%]	inhibition [2] [%]	inhibition [3] [%]	inhibition [4] [%]	Ki [5] [µM]	Ki [6] [µM]	Ki [7] [µM]	Ki [8] [µM]	SMILES
< 50	< 50	< 50	< 50					C#CCOc1ccc(-c2nn3c(C)cc(C)nc3c2CC(=O)N(CC)CC)cc1
< 50				> 10	8.36	> 10		CCCCOc1ccc(-c2nn3c(C)cc(C)nc3c2CC(=O)N(CC)CC)cc1
				> 10		> 10	> 10	CCCOc1ccc(-c2nn3c(C)cc(C)nc3c2CC(=O)N(CC)CC)cc1
	< 50	< 50	< 50					CCOc1ccc(-c2nn3c(C)cc(C)nc3c2CC(=O)N(CC)CC)cc1
